What was measured:
[1] = Pharmacokinetic study in rat plasma after oral administration of RCR and WCR oral liquid medicine; format: in vivo, Sprague-Dawley rats; conditions: n = 6, mean ± SD; for AUC(0-inf) / AUC(0-t) / Cmax / MRT / Tmax / half-life: male, Sprague-Dawley, rat, plasma, po, 24.01 g/kg
Description: RCR (300 g) and WCR (300 g) were weighed and soaked in water (6:1, v/w) for 20 min respectively, then refluxed for 30 min and extracted twice. Finally, the extracts of RCR and WCR were filtered, combined, and concentrated to 1.20 g/mL respectively. The concentrated extracts were stored in a refrigerator at 4 °C before use.
Male adult Sprague-Dawley rats (220–250 g) were obtained from the Laboratory Animal Center of Shanxi Medical University (Shanxi, China). The rats were fed in an air-conditioned animal center with a natural light-dark cycle for a week, the temperature was maintained at 22–26 °C and the relative humidity was maintained at 60 ± 10%. All procedures involving the animal were in accordance with the Regulations of Experimental Animal Administration issued by the State Committee of Science and Technology of People’s Republic of China. It is worth noting that all rats were fasted with free access to water for 12 h prior to the experiment.
The collected plasma samples (100 µL) spiked with IS (10 µL) and methanol (10 µL) were vortex-mixed for 5 min. Subsequently, methanol of 300 µL was added for protein precipitation. The mixtures were vortexed for 5 min and then centrifuged at 13,000 rpm for 20 min. Finally, the supernatant was transferred to another clean centrifuge tube and centrifuged again in the same manner. The supernatant of 5 µL was injected into the UHPLC-Q-Exactive-Orbitrap/MS system for analysis.
Twelve rats were randomly divided into two groups (n = 6 per group), an orally administered liquid medicine of RCR and WCR respectively at the same dose of 24.01 g/kg. The blood samples (0.3 mL) from the suborbital vein of each rat were collected in a 1.5 mL heparinized centrifuge tube before dosing and at 0.033, 0.083, 0.16, 0.25, 0.5, 1, 2, 4, 8, 11, 24, 48 h after administration. The blood samples were immediately centrifuged at 13,000 rpm for 10 min and the plasma separated out were transferred to clean centrifuge tubes and stored at −20 °C until analysis.
The pharmacokinetic parameters of the analytes were evaluated using Phoenix WinNonlin software (version 6.0, Pharsight Corporation, CA, USA). The mean plasma concentration-time curves were presented using Graphpad Prism (version 6.0, Graghpad Software, San Diego, CA, USA).

[2] = format: in vitro ADME, rat; conditions: low QC (7.08/5.22/6.55/6.68 ng/mL), n = 6
Description: The quality control (QC) samples were prepared by the same procedure described above. Furthermore, low, medium, high concentrations of QC samples of each component were 7.08, 141.50, 1132 ng/mL for butylidenephthalide; 5.22, 104.40, 835.20 ng/mL for ligustilide; 6.55, 131, 1048 ng/mL for senkyunolide A and 6.68, 667.50, 10,680 ng/mL for ferulic acid, respectively.
The stability study of biological samples containing short-term, long-term, freeze-thaw and post-preparation stability could evaluate the influence of sample handling environment and sample storage environment on active component content. Six replicates of QC samples at three concentration levels were analyzed for all stability studies. Short-term stability was evaluated by keeping all QC samples at room temperature for 4 h before processing. Long-term stability was evaluated after all QC samples were stored at −20 °C for 60 days. Freeze-thaw stability of QC samples of each concentration was evaluated after three freeze (−20 °C)-thaw (room temperature) cycles. Post-preparation stability was to observe the stability of the extracted QC samples after waiting for 24 h in the autosampler at 4 °C. The concentration of each QC sample was calculated by the standard curve prepared freshly on the same day. The samples were considered stable when RSD of QC samples at three concentration levels was within ±15%.

With `CCCCC1OC(=O)C2=C1CCC=C2` (stereo not shown) [Senkyunolide A, senkyunolide A] the AUC(0-inf) ([1]; oral RCR 24.01 g/kg) was 1.84 ± 0.501 µg·h/mL, the AUC(0-t) ([1]; oral RCR 24.01 g/kg) was 1.64 ± 0.438 µg·h/mL and the Cmax ([1]; oral RCR 24.01 g/kg) was 0.653 ± 0.581 µg/mL. It also gave an MRT ([1]; oral RCR 24.01 g/kg) of 18.8 ± 4.24 h, a Tmax ([1]; oral RCR 24.01 g/kg) of 0.11 ± 0.09 h and a half-life ([1]; oral RCR 24.01 g/kg) of 13.4 ± 3.56 h. For the same compound, the AUC(0-inf) ([1]; oral WCR 24.01 g/kg) was 0.861 ± 0.267 µg·h/mL, the AUC(0-t) ([1]; oral WCR 24.01 g/kg) was 0.804 ± 0.279 µg·h/mL and the Cmax ([1]; oral WCR 24.01 g/kg) was 0.151 ± 0.0843 µg/mL. The MRT ([1]; oral WCR 24.01 g/kg) was 9.86 ± 1.53 h, the Tmax ([1]; oral WCR 24.01 g/kg) was 0.18 ± 0.07 h and the half-life ([1]; oral WCR 24.01 g/kg) was 6.32 ± 1.72 h. The Cl ([1]; oral RCR 24.01 g/kg) was 392.87 ± 142.41 mL/h, the Vd ([1]; oral RCR 24.01 g/kg) was 7378.16 ± 2565.01 mL and the Vd ([1]; oral WCR 24.01 g/kg) was 8275.68 ± 5216.70 mL.
For `COc1cc(/C=C/C(=O)O)ccc1O` [Ferulic Acid, ferulic acid], the AUC(0-inf) ([1]; oral RCR 24.01 g/kg) was 13.4 µg·h/mL, the AUC(0-t) ([1]; oral RCR 24.01 g/kg) was 13.1 µg·h/mL and the Cmax ([1]; oral RCR 24.01 g/kg) was 47.7 µg/mL. For the same compound, the MRT ([1]; oral RCR 24.01 g/kg) was 3.21 ± 1.66 h, the Tmax ([1]; oral RCR 24.01 g/kg) was 0.12 ± 0.09 h and the AUC(0-inf) ([1]; oral WCR 24.01 g/kg) was 4.62 ± 1.29 µg·h/mL. For the same compound, the AUC(0-t) ([1]; oral WCR 24.01 g/kg) was 4.46 ± 1.24 µg·h/mL, the Cmax ([1]; oral WCR 24.01 g/kg) was 9.53 ± 6.5 µg/mL and the MRT ([1]; oral WCR 24.01 g/kg) was 4.05 ± 1.07 h. The Tmax ([1]; oral WCR 24.01 g/kg) was 0.06 ± 0.03 h, the Cl ([1]; oral RCR 24.01 g/kg) was 24.08 ± 14.39 mL/h and the Vd ([1]; oral RCR 24.01 g/kg) was 283.95 ± 234.10 mL. The t1/2 ([1]; oral RCR 24.01 g/kg) was 8.57 ± 4.42 h, the Cl ([1]; oral WCR 24.01 g/kg) was 178.84 ± 54.46 mL/h and the Vd ([1]; oral WCR 24.01 g/kg) was 1519.30 ± 1321.97 mL. It also gave a t1/2 ([1]; oral WCR 24.01 g/kg) of 5.33 ± 2.97 h.
With `CCC/C=C1\OC(=O)C2=C1CCC=C2` [Ligustilide, ligustilide] the AUC(0-inf) ([1]; oral RCR 24.01 g/kg) was 4.11 ± 0.285 µg·h/mL, the AUC(0-t) ([1]; oral RCR 24.01 g/kg) was 4.08 ± 0.201 µg·h/mL and the Cmax ([1]; oral RCR 24.01 g/kg) was 0.289 ± 0.0081 µg/mL. For the same compound, the MRT ([1]; oral RCR 24.01 g/kg) was 13.5 ± 1.74 h, the Tmax ([1]; oral RCR 24.01 g/kg) was 0.22 ± 0.05 h and the half-life ([1]; oral RCR 24.01 g/kg) was 8.5 ± 1.41 h. For the same compound, the AUC(0-inf) ([1]; oral WCR 24.01 g/kg) was 4.04 ± 1.48 µg·h/mL, the AUC(0-t) ([1]; oral WCR 24.01 g/kg) was 3.31 ± 0.579 µg·h/mL and the Cmax ([1]; oral WCR 24.01 g/kg) was 0.192 ± 0.00848 µg/mL. For the same compound, the MRT ([1]; oral WCR 24.01 g/kg) was 21.9 ± 11.2 h, the Tmax ([1]; oral WCR 24.01 g/kg) was 0.3 ± 0.18 h and the half-life ([1]; oral WCR 24.01 g/kg) was 14.6 ± 7.56 h. The Cl ([1]; oral RCR 24.01 g/kg) was 128.76 ± 19.21 mL/h, the Vd ([1]; oral RCR 24.01 g/kg) was 1579.29 ± 363.96 mL and the Cl ([1]; oral WCR 24.01 g/kg) was 568.93 ± 184.86 mL/h. The Vd ([1]; oral WCR 24.01 g/kg) was 10,580.62 ± 2206.75 mL.
For `CCC/C=C1\OC(=O)c2ccccc21` [Butylidenephthalide, butylidenephthalide], the AUC(0-inf) ([1]; oral RCR 24.01 g/kg) was 0.782 ± 0.252 µg·h/mL, the AUC(0-t) ([1]; oral RCR 24.01 g/kg) was 0.743 ± 0.279 µg·h/mL and the Cmax ([1]; oral RCR 24.01 g/kg) was 0.288 ± 0.37 µg/mL. The MRT ([1]; oral RCR 24.01 g/kg) was 14.1 ± 6.54 h, the Tmax ([1]; oral RCR 24.01 g/kg) was 0.25 ± 0.14 h and the half-life ([1]; oral RCR 24.01 g/kg) was 11.4 ± 5.88 h. It also gave an AUC(0-inf) ([1]; oral WCR 24.01 g/kg) of 0.402 ± 0.0771 µg·h/mL, an AUC(0-t) ([1]; oral WCR 24.01 g/kg) of 0.384 ± 0.0909 µg·h/mL and a Cmax ([1]; oral WCR 24.01 g/kg) of 0.0521 ± 0.0166 µg/mL. For the same compound, the MRT ([1]; oral WCR 24.01 g/kg) was 13.9 ± 3.63 h, the Tmax ([1]; oral WCR 24.01 g/kg) was 0.27 ± 0.14 h and the half-life ([1]; oral WCR 24.01 g/kg) was 11 ± 3.75 h. For the same compound, the Cl ([1]; oral RCR 24.01 g/kg) was 36.61 ± 16.33 mL/h, the Vd ([1]; oral RCR 24.01 g/kg) was 633.78 ± 424.90 mL and the Cl ([1]; oral WCR 24.01 g/kg) was 234.35 ± 44.10 mL/h. For the same compound, the Vd ([1]; oral WCR 24.01 g/kg) was 3802.37 ± 1676.69 mL, the “Post-Preparative Stability RE” value ([2]; extracted rat plasma, 24 h in autosampler at 4 °C) was 6.90% and the “Bench-Top Stability RE” value ([2]; rat plasma, room temperature 4 h) was 1.88%. The “Freeze-Thaw Stability RE” value ([2]; rat plasma, three freeze (−20 °C)-thaw cycles) was −10.99% and the “Long-Term Stability RE” value ([2]; rat plasma, −20 °C for 60 days) was 4.03%.

From paper PMC6982718, “Comparative Study on Pharmacokinetics of Four Active Compounds in Rat Plasma after Oral Administration of Raw and Wine Processed Chuanxiong Rhizoma” (Molecules, 2019)
